Source: PubChem BioAssay (NCI)
Where “and” joins values, the source holds several entries; their conditions need not be identical. Identical values can stand only once.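 Cultured in 96-well plates, cells were exposed to test compound for 48 hours across five concentrations. The concentration for 50% growth inhibition is given as GI50. TGI denotes the concentration required for complete inhibition of growth.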

Legend:
Experiment in all cases: NCI-60 cell line screen, 48 h
U251 CNS = test system: U251 CNS
SK-MEL-28 melanoma = test system: SK-MEL-28 melanoma
SK-MEL-2 melanoma = test system: SK-MEL-2 melanoma
SF-268 CNS = test system: SF-268 CNS
EKVX NSCLC = test system: EKVX NSCLC
NCI-H23 lung = test system: NCI-H23 lung
RPMI-8226 leukemia = test system: RPMI-8226 leukemia
COLO 205 colon = test system: COLO 205 colon
HT29 colon = test system: HT29 colon
HCT-116 colon = test system: HCT-116 colon

SMILES	GI50 (U251 CNS)	TGI (U251 CNS)	GI50 (SK-MEL-28 melanoma)	TGI (SK-MEL-28 melanoma)	GI50 (SK-MEL-2 melanoma)	TGI (SK-MEL-2 melanoma)	GI50 (SF-268 CNS)	TGI (SF-268 CNS)	GI50 (EKVX NSCLC)	TGI (EKVX NSCLC)	GI50 (NCI-H23 lung)	TGI (NCI-H23 lung)	GI50 (RPMI-8226 leukemia) [µM]	TGI (RPMI-8226 leukemia) [µM]	GI50 (COLO 205 colon)	TGI (COLO 205 colon)	GI50 (HT29 colon)	TGI (HT29 colon)	GI50 (HCT-116 colon)	TGI (HCT-116 colon)
CC[CH2][Sn]([CH2]CC)([O]C(=O)c1cccnc1SC)[O][Sn]([CH2]CC)([CH2]CC)[O]C(=O)c1cccnc1SC	0.25 µM	0.592 µM	0.296 µM	0.711 µM	0.299 µM	0.823 µM	0.33 µM	0.969 µM	0.699 µM	2.85 µM	0.218 µM	0.801 µM	0.139	> 100	0.396 µM	1.08 µM	1.1 µM	3.33 µM	0.452 µM	1.48 µM
CC(C)c1nc(CN(C)C(=O)N[C@H](C(=O)N[C@@H](Cc2ccccc2)C[C@H](O)[C@H](Cc2ccccc2)NC(=O)OCc2cncs2)C(C)C)cs1	24.3 µM	71.2 µM	21.5 µM	47.2 µM	31.7 µM	> 100 µM	20.3 µM	66.7 µM	4.11 µM	> 100 µM	42.6 µM	> 100 µM	7.9	27.7	17.6 µM	38.2 µM	19.3 µM	50.6 µM	19.9 µM	50.1 µM
O=C1CCCCN1CCCCC#Cc1ccccc1C#Cc1ccc([N+](=O)[O-])cc1	3.79 µM	14.4 µM	10.5 µM	22.4 µM	3.65 µM	16.7 µM	11.7 µM	27.3 µM	5.26 µM	40 µM	4.23 µM	17.1 µM	0.408	3.39	2.75 µM	7.17 µM	3.74 µM	59.6 µM	4.18 µM	13.5 µM
COC12C=C(C)C(CC1)CC2C(=O)O (stereo not given)		> 100 µM		> 100 µM		> 100 µM		> 100 µM		> 100 µM		> 100 µM		> 100		> 100 µM		> 100 µM		> 100 µM
N#Cc1ccc(O)c(C2=NCC(c3cccc(Oc4ccccc4)c3)O2)c1 (stereo not given)	0.503 µM	> 100 µM	2.09 µM	> 100 µM	2.41 µM	24.4 µM	1.3 µM	> 100 µM	0.507 µM	> 100 µM	1.27 µM	> 100 µM	0.715	> 100	3.13 µM	15.6 µM	5.41 µM	41.6 µM	0.587 µM	13.7 µM
Oc1c(CN2CCC(N3CCCCC3)CC2)cc(Cc2cc(CN3CCC(N4CCCCC4)CC3)c(O)c3ncccc23)c2cccnc12	0.835 µM	13.6 µM	1.24 µM	5.77 µM	2.21 µM	7.04 µM	0.537 µM	13.8 µM	0.57 µM	15.5 µM	2.28 µM	14 µM	1.86	7.22	0.372 µM	1.94 µM	1.07 µM	5.39 µM	0.725 µM	7.17 µM
CC1=CC(=Nc2ccc(N(CCCl)CCCl)cc2)C=C(C)C1=O	1.02 µM	7.33 µM	2.48 µM	10.1 µM	1.48 µM	4.77 µM	0.409 µM	2.85 µM	3.31 µM	35 µM	0.768 µM	4.36 µM	1.14	9.29	1.49 µM	4.67 µM	1.11 µM	4.59 µM	0.935 µM	2.38 µM
CC[C@@H]1CN(C)[C@H]2Cc3c([nH]c4ccccc34)C(=O)C[C@H]1C2C(=O)OC (stereo not given in full)		> 100 µM		> 100 µM		> 100 µM		> 100 µM		> 100 µM		> 100 µM		> 100		> 100 µM		> 100 µM		> 100 µM
CCN(CC)CCOc1ccc(/C(=C(\Cl)c2ccccc2)c2ccccc2)cc1	1.72 µM and 1.53 µM	7.22 µM and 3.51 µM	1.07 µM and 1.79 µM	2.21 µM and 3.47 µM	3.26 µM and 1.64 µM	10.4 µM and 3.7 µM	5.47 µM and 4.78 µM	11.9 µM and 19.2 µM	5.74 µM and 3.44 µM	13 µM and 17.3 µM	5.25 µM and 2.62 µM	11.8 µM and 10.3 µM	2.17	6.98	0.859 µM and 1.36 µM	1.72 µM and 2.83 µM	0.944 µM and 0.353 µM	2.21 µM and 1.38 µM	2.03 µM and 1.49 µM	7.14 µM and 3.07 µM
C=C1C(=O)O[C@H]2[C@H]1CC/C(COC(=O)c1ccc3ccccc3c1)=C\CC[C@@]1(C)O[C@@H]21	1.21 µM	2.5 µM	1.47 µM	2.96 µM	1.2 µM	2.61 µM	1.28 µM	2.75 µM	1.63 µM	3.63 µM	1.6 µM	3.36 µM	0.281	0.869	1.36 µM	2.94 µM	0.438 µM	1.65 µM	0.379 µM	1.6 µM
CCN(CC)c1ccc(/C=C/c2ccc3cc(C)ccc3[n+]2CC)cc1	0.0441 µM	14.5 µM	0.279 µM	2.19 µM	0.173 µM	0.71 µM	0.406 µM	16.5 µM	0.0787 µM	13.2 µM	0.0303 µM	12.5 µM	0.029	3.66	0.124 µM	0.516 µM	0.0771 µM	2.19 µM	0.033 µM	2.57 µM
C/C(CC(=O)Nc1cc(Cl)c(Cl)cc1Cl)=N\NC(N)=O		> 100 µM		> 100 µM		> 100 µM		> 100 µM		> 100 µM		> 100 µM		> 100		> 100 µM		> 100 µM		> 100 µM
COc1ccc(-c2cc(=O)c3c(OC)c(OC)c(OC)cc3o2)cc1		> 100 µM		> 100 µM		56 µM		> 100 µM		> 100 µM		> 100 µM		> 100		51.7 µM		99.5 µM		> 100 µM
